We go through one molecule from patent publication US20220089663A1, “PROTEINS AND FLUOROPHORE-CONTAINING COMPOUNDS SELECTIVE FOR NaV1.7” (MEMORIAL SLOAN KETTERING CANCER CENTER, priority 2019, published 2022).

The structures appear in SMILES notation.

Series [1] can be described thus: acute in vivo toxicity after intravenous injection. Details: species or system mouse. The protocol: Acute in vivo toxicity. All animal experiments were performed in accordance with protocols approved by the Institutional Animal Care and Use Committee of MSK and followed the National Institute of Health guidelines for animal welfare. Six athymic nude mice 6-8 weeks old were purchased from Envigo RMS, Inc. An intravenous (IV) catheter was placed in tail vein of each mouse and they were anesthetized using Isoflurane (Novaplus, Telangana-India). Anesthesia was maintained using 1.0 to 1.5 L/min of Isoflurane and 2 L/min of oxygen. Three animals were injected with 68 μM, 7 nmol Hsp1a-FL in 100 μL of PBS, and the other three with […], of PBS. Animals were monitored using a rodent surgical monitor (Indus instruments, Houston, Tex.) before, during, and up to 16 minutes after injection. Numeric data points represent averaged values of 5±1 seconds duration. Data was collected before injection, 15 seconds after injection, 5 minutes after injection and 15 minutes after injection. Mouse body core temperature was measured by placing a rectal probe and electronically regulated via a surgical platform. The high-resolution electrocardiogram (EKG) was measured by placing non-invasive electrodes on the 4 paws and electrical contact was assured using a conducting gel (Electrode cream, Indus instruments, Houston, Tex.). Heart rate was automatically calculated from the R-R peaks derived from the EKG signal. Peripheral capillary oxygen saturation (SpO2) was non-invasively measured by placing a clip sensor on the animal's left thigh.
Statistical Analysis. Data were statistically analyzed by generalized estimating equations followed by LSD post hoc test when appropriate using SPSS 23.0. During animal toxicity studies, data points representing loss of signal were excluded from the analysis. Loss of signal was defined by a brief contact loss between the monitoring equipment and the mice (creating a “false” zero or −1 result). Loss of signal was corrected by placing the electrode in close contact to the mice. Average and standard deviations were calculated for each mouse.
Unless otherwise stated, data points represent mean values and error bars represent the standard deviation of biological replicates (mean±SEM). All p-values were calculated using a Student's unpaired t-test. Statistical significance was considered for p-values<0.05 and as follows: ns=not significant, *p<0.05, **p<0.01, ***p<0.001. Mann-Whitney tests were used for analysis of the unpaired samples (e.g. vital signs in mice injected with Hsp1a and mice from the control group) and the Wilcoxon test was used for analysis of paired samples (e.g. vital signs from same mouse before and after injection). Statistical significance was determined with alpha=0.05. Analysis and figures were prepared in GraphPad Prism 8.

Another series addresses T1, hNav1.5 (Homo sapiens, UniProt Q14524).
T1 construct: host or cells: HEK293
Kind of series: automated whole-cell patch clamp (QPatch 16X), HEK293-hNav1.5. The format is cell-based. For orientation: The patch-clamp technique gives a direct electrical read-out from membranes.

Another series addresses T2, hNav1.7 (Homo sapiens, UniProt Q15858).
T2 construct: host or cells: HEK293
Kind of series: automated whole-cell patch clamp (QPatch 16X), HEK293-hNav1.7. The format is cell-based.

[2] abbreviates: before, 15 seconds, 5 and 15 minutes after injection.

T2 sequence (Q15858 whole entry): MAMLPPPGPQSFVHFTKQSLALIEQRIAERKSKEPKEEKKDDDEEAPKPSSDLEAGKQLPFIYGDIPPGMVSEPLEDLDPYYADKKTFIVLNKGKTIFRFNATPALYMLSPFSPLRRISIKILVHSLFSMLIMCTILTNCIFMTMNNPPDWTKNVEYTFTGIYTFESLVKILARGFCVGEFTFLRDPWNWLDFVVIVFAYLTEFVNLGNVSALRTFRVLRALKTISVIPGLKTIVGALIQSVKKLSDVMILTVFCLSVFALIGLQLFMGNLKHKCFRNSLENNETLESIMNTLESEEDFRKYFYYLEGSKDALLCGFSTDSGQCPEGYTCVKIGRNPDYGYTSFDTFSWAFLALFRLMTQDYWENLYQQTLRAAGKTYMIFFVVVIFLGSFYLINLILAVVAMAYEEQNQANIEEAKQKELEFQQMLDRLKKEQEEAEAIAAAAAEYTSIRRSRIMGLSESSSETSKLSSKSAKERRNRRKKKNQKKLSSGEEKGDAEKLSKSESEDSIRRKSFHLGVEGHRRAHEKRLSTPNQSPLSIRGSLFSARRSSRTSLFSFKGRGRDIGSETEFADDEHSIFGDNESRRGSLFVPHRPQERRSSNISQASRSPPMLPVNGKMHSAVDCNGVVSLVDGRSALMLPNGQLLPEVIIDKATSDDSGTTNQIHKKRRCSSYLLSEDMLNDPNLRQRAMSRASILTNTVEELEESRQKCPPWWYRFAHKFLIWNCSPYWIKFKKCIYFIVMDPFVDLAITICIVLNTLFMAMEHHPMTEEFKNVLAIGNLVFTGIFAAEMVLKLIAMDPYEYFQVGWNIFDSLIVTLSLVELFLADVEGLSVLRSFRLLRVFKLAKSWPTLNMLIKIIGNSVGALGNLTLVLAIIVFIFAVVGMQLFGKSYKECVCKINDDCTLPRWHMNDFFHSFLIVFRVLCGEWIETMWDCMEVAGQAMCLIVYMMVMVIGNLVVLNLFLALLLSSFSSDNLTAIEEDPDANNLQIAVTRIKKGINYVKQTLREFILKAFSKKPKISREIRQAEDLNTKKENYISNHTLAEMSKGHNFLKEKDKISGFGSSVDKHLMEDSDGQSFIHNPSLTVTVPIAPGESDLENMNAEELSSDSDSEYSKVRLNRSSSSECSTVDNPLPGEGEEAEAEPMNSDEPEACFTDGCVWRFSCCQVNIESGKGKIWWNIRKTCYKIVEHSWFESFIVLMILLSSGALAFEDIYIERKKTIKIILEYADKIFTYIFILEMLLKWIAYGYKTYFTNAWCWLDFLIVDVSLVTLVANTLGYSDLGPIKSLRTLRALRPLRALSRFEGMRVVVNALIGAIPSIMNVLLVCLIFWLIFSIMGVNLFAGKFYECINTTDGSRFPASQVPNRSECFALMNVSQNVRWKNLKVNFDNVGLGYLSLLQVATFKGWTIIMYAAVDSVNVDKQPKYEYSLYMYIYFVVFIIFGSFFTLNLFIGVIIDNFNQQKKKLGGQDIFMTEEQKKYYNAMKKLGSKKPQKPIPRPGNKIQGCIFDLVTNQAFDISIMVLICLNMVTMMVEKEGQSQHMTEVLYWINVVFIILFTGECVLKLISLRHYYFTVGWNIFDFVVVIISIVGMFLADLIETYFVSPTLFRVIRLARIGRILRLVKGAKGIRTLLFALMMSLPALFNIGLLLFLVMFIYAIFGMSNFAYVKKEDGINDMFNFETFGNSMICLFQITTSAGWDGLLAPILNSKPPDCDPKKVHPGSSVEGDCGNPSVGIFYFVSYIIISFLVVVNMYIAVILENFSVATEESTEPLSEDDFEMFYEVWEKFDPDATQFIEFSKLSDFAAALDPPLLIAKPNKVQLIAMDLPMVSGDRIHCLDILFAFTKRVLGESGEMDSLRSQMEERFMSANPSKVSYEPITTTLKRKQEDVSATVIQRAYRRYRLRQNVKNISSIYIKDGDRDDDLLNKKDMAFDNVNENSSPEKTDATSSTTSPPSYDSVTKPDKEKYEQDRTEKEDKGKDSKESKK
T2 sequence (Q07699 19-218, further chain): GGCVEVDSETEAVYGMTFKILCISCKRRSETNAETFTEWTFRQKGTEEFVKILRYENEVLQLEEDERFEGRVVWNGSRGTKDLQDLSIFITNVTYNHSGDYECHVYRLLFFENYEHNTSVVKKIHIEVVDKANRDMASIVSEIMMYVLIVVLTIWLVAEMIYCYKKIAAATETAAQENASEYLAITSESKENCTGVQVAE
T1 sequence (Q14524 whole entry): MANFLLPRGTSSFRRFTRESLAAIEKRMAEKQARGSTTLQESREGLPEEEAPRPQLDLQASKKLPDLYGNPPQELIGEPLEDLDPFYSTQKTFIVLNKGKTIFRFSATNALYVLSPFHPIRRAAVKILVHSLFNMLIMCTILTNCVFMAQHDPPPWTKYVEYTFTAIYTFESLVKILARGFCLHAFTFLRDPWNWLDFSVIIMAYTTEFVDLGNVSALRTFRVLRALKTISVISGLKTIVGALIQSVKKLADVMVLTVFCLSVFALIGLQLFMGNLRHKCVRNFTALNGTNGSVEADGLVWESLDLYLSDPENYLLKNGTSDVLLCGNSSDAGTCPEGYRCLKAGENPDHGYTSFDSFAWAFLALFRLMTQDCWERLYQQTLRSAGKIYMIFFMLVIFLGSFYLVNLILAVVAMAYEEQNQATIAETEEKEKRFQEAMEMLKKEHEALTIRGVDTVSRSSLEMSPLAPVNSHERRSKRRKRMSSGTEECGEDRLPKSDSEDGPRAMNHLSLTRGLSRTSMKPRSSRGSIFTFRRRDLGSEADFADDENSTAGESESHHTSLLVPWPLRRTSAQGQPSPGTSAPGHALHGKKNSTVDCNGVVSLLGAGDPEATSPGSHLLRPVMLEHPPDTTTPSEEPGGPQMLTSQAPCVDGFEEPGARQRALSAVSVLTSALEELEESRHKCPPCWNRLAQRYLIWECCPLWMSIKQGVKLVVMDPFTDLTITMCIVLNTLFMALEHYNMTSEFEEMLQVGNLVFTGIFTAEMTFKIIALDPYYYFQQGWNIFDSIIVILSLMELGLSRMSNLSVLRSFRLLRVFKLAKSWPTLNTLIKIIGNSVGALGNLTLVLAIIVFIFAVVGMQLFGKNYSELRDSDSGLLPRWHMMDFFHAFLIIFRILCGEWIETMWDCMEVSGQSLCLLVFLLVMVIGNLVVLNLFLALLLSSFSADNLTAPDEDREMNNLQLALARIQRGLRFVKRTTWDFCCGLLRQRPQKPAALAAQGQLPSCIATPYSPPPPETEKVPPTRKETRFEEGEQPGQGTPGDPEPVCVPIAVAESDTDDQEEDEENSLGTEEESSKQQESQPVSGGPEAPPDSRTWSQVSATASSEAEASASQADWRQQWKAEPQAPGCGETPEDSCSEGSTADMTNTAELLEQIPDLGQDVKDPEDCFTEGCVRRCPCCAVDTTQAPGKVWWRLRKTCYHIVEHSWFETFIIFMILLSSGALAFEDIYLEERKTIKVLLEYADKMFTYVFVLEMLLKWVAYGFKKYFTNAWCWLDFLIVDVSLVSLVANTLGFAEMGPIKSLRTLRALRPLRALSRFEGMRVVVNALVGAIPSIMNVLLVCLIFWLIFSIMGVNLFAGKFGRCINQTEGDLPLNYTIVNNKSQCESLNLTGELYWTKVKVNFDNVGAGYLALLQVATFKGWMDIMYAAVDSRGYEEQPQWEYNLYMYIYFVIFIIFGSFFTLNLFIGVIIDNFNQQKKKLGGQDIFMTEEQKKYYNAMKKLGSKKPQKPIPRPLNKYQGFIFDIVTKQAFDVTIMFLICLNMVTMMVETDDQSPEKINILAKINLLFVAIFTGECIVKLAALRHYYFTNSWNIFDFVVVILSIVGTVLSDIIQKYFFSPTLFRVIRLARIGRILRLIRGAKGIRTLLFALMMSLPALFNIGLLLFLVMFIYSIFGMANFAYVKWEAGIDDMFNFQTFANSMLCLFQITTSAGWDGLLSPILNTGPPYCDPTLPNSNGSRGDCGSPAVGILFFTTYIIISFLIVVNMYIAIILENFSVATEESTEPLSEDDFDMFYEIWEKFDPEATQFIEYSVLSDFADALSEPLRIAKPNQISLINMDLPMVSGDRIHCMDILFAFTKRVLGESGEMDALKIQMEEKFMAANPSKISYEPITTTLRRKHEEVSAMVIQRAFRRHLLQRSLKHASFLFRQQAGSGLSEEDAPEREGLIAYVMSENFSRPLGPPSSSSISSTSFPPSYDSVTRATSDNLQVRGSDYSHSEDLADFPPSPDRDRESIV

One may read the inhibition as how much of the control response was suppressed. As for `CC[C@H](C)[C@H](NC(=O)[C@H](CCCCN)NC(=O)[C@@H]1CSSC[C@@H]2NC(=O)[C@@H]3CCCN3C(=O)[C@H](CCCNC(=N)N)NC(=O)[C@H](CCC(=O)O)NC(=O)[C@H](CO)NC(=O)[C@H](CC(=O)O)NC(=O)[C@@H]3CSSC[C@H](NC(=O)[C@H](C(C)C)NC(=O)[C@H](CC(C)C)NC(=O)CNC(=O)[C@H](CCC(=O)O)NC(=O)[C@H](CSSC[C@H](NC(=O)[C@@H](N)Cc4ccc(O)cc4)C(=O)N[C@@H](CCC(N)=O)C(=O)N[C@@H](CCCCN)C(=O)N[C@@H](Cc4ccccc4)C(=O)N[C@@H](CC(C)C)C(=O)N[C@@H](Cc4c[nH]c5ccccc45)C(=O)N[C@@H]([C@@H](C)O)C(=O)N3)NC2=O)C(=O)N[C@@H](CCCNC(=N)N)C(=O)N[C@@H](CC(C)C)C(=O)N[C@@H](Cc2c[nH]c3ccccc23)C(=O)N1)C(=O)N[C@@H](CC(N)=O)C(N)=O` [sHsp1a], the “effect on heart muscle (heart rate)” value in series [1] (setting [2]) is “no effect”. Moreover, the “effect on the respiratory musculature (oxygen saturation in peripheral blood)” value in series [1] (setting [2]) is on record as “no effect”. Besides, the “effect on mouse body temperature” value in series [1] (mouse, in vivo) was “no effect”. Also, on hNav1.5 (at 200 nM), the “inhibition of hNav1.5 currents” value is “did not show any significant inhibition”. The “sensitivity of hNav1.5” value on hNav1.5 (at 2 μM) is reported as “insensitive”. Moreover, the inhibition at 2 µM at hNav1.5 (at 2 μM, read-out: max. current inhibition hNav1.5) was below 50%; on hNav1.7 (at 2 μM, read-out: current inhibition hNav1.7), 75%. For the same molecule, the IC50 was above 1000 nM on hNav1.5 (read-out: pIC50 on hNav1.5 (converted)) and 10.5 nM on hNav1.7 (mean±S.E.M, read-out: pIC50 on hNav1.7 (converted)). On hNav1.7 (at 200 nM), this molecule had a hNav1.7 currents blocked of 70%.
